From PubChem BioAssay AID1902 (Broad Institute, 2009)
Where “and” joins values, the source holds several entries; their conditions need not be identical. Equal values may be shown once. Calls of active or inactive are those of the source.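 How the source made its calls: active means EC50 no more than a set limit of log units above the highest dose; inactive means the rest.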

Each molecule was assayed against S. pyogenes SKKanGAS, kanamycin survival, BacTiterGlo, 6 h (assay: SKKanGAS survival reduction under kanamycin, dose response, streptokinase promoter inhibitor project, SKKanGAS strain, luminescence, dose confirmation (AID 1902);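 further: lower survival reflects blocked streptokinase promoter driving kanamycin resistance gene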).

SMILES	EC50
Cc1cccc(C(=O)CC(=O)c2cc(Cl)ccc2O)c1	1060 nM
CCN(c1ccccc1)S(=O)(=O)c1ccc(C(=O)Nc2nnc(CSC)o2)cc1	3700 nM
COCCn1c(SCc2nc3sc(C(=O)OC)c(C)c3c(=O)[nH]2)nc2ccccc21	3540 nM
c1ccc(-c2nnc(-c3ccccn3)nc2NC2CCCCC2)cc1	2950 nM
Cc1ccc2c(Cl)cc(Cl)c(OCC(=O)NC(C)(C)C)c2n1	3140 nM
COc1ccc(NC(=O)CSc2ccc3nnc(-c4ccccn4)n3n2)c(OC)c1	> 15000 nM (inactive)
Cc1nc(NC(=O)c2ccc(Cl)cc2)sc1-c1csc(Nc2cccc(F)c2)n1	2690 nM
CCC1=NN2C(=N)/C(=C\c3cccn3-c3ccc(C)c(C)c3)C(=O)N=C2S1	3910 nM
Cc1ccc2nc(-c3ccc(NS(=O)(=O)c4ccc(F)c(F)c4)cc3)sc2c1	2690 nM
COc1ccc(C(=O)NC(=S)NNC(=O)c2ccc(C)cc2)cc1	137 nM
O=C(Nc1cc(Cl)cc(Cl)c1)Nc1cnccn1	4850 nM
CC(C)C[C@H](NC(=O)c1[nH]cnc1C(=O)N[C@@H](C)c1ccccc1)C(=O)OCc1ccccc1	1160 nM
CCn1c(=O)c(C(=O)NNC(=O)c2ccccc2F)c(O)c2ccccc21	3170 nM
N#C/C(=C(/O)c1ccc([N+](=O)[O-])o1)c1nc2ccccc2[nH]1	2050 nM
Cc1nnc(NC(=O)c2ccc(S(=O)(=O)N(C)Cc3ccccc3)cc2)o1	4710 nM
CCCc1nc2ccccc2c(=O)n1NC(=O)c1c(O)c2cccc3c2n(c1=O)CCC3	2600 nM
Cc1ccccc1NC1=C/C(=N\S(=O)(=O)c2cccs2)c2ccccc2C1=O	1440 nM
Nc1c(S(=O)(=O)c2ccccc2)c2nc3ccccc3nc2n1/N=C/c1cccc(O)c1	5220 nM
COCCn1c(SCC(=O)Nc2ccc(F)cc2)nc2c([nH]c3ccccc32)c1=O	> 15000 nM (inactive)
CCCCC(=O)NC(c1ccc(Cl)cc1Cl)c1ccc2cccnc2c1O (configuration not stated)	1970 nM
CCCC(=O)NC(c1ccc(C(C)C)cc1)c1ccc2cccnc2c1O (configuration not stated)	5540 nM
CCCc1nc2ccccc2c(C(=O)OCC(=O)Nc2ccc(S(=O)(=O)N3CCOCC3)cc2)c1CC	7140 nM
CC(=O)Nc1ccc(NC(=O)CSc2nnc(NC(=O)c3ccc(Br)o3)s2)cc1	2680 nM
COC(=O)c1nc(NC(=S)NC(=O)c2cccs2)sc1C	12700 nM
CCCCCCCCCCCCCCCCn1cc[n+](C)c1	1900 nM and 2050 nM
Cc1cccc(Oc2nc(-c3ccncc3)nc3ccccc23)c1	8040 nM

SMILES	EC50
C=CCn1c(COc2ccccc2)nnc1SC(C)C(=O)N/N=C/c1cc(Cl)ccc1O (configuration not stated)	1700 nM
COc1ccc(C(=O)NC(=S)Nc2ccc(N3CCOCC3)c(Cl)c2)cc1[N+](=O)[O-]	1970 nM
O=C(COn1nnc2ccc(C(F)(F)F)cc21)Nc1nnc(-c2ccccc2)o1	2510 nM
Cc1ccc(C(=O)N2CCOCC2)cc1Cl	> 15000 nM (inactive)
O=C(NC(=S)N(Cc1ccccc1)Cc1ccccc1)c1ccccc1F	752 nM
COc1ccc(N(CC(=O)NCCSCc2cccc(Cl)c2)S(C)(=O)=O)cc1Cl	4720 nM
O=c1c2cc(N3CCOCC3)ccc2[nH]c(=S)n1CCc1ccccc1	482 nM
CCc1ccc(CNc2ccc3c(c2)ncn3C(C)(C)C)cc1	3300 nM
Cc1c(N/N=C(\C#N)C(=O)c2ccccc2)c(=O)n(-c2ccccc2)n1C	1440 nM
CCSc1nnc(NC(=O)c2nc(-c3ccccc3)n(-c3ccccc3)n2)s1	3490 nM
Cc1cc(C)c(C(=O)CC(=O)c2ccccc2Cl)c(O)c1	6760 nM
COc1ccc(-c2cc3nc4n(c(=O)c3s2)CCC4)cc1	734 nM
c1ccc(Nc2nc3ccccc3[nH]2)nc1	1460 nM
COC(=O)c1ccc(CN(c2ccc(C(=O)O)c(O)c2)S(=O)(=O)c2ccc(Cl)c([N+](=O)[O-])c2)cc1	2630 nM
Cc1ccc(C)c(NC(=S)N/N=C2/CCCCc3ccccc32)c1	643 nM
COc1ccc(C(=O)NCC(=O)OCCCOC(=O)CNC(=O)c2ccc(OC)c(OC)c2)cc1OC	> 15000 nM (inactive)
CC(C)C(=O)NC(c1cccs1)c1cc([N+](=O)[O-])c2cccnc2c1O (configuration not stated)	1450 nM
O=C(Nc1ccccc1Sc1ccccc1)c1ccccc1F	4530 nM
COc1ccc(NC(=O)c2ccc3c(c2)NC(=O)CS3)cc1S(=O)(=O)Nc1ccc(Br)cc1	3380 nM
Clc1ccccc1CN(Cc1ccccc1)c1ncnc2nc[nH]c12	3850 nM
COc1cc(OC)cc(C(=O)Nc2nc(CC(=O)NCc3ccccc3OC)cs2)c1	12400 nM
CO[C@H]1C=CO[C@@]2(C)Oc3c(C)c(O)c4c(O)c(c5c(c4c3C2=O)NC2(CCN(CC(C)C)CC2)N=5)=NC(=O)C(C)=CC=C[C@H](C)[C@H](O)[C@@H](C)[C@@H](O)[C@@H](C)[C@H](OC(C)=O)[C@@H]1C	< 60 nM
Nc1nc(CN2CCN(c3ccc(F)cc3)CC2)nc(N2CCCc3ccccc32)n1	178 nM
N#C/C(=N\Nc1ccc(S(=O)(=O)N2CCc3ccccc32)cc1)C(N)=S	11300 nM
Cc1ccc(S(=O)(=O)N(C)CC(=O)N2CC(C)OC(C)C2)cc1 (configuration not stated)	> 15000 nM (inactive)
Cc1cccnc1NCc1ccc(O)c2ncccc12	5650 nM
